Values of other authors in patent EP1358311B1, “CLEANING COMPOSITIONS” (Unilever N.V., priority 2001, dated 2002).

Conditions: for Water Solubility (g/100g): at 20°C, other common materials, listed by contrast

| Structure (SMILES) | Water Solubility (g/100g) | Water Solubility (grams/100 grams water) (saturated solution in 100 grams of deionised water at 20°C, highly water-soluble materials) |
| --- | --- | --- |
| O=BO[O-].[Na+] [Sodium perborate anhydrous] | 3.7 g/100g |  |
| O=P(O)(O)OP(=O)(O)OP(=O)(O)O [Sodium tripolyphosphate anhydrous] | 15 g/100g |  |
| NC(N)=O [Urea] |  | >100 grams/100 grams water |
